The values below are quoted from earlier work in US10898503B2, “Cleavable drug conjugates, compositions thereof and methods of use” (priority 2013, dated 2021).

Where two headings read alike, the source gives them in different places.

The conditions of data set [1]: patients.
For data set [2] the following is noted: in vivo.

With `COc1cccc2c1C(=O)c1c(O)c3c(c(O)c1C2=O)C[C@@](O)(C(=O)CO)C[C@@H]3O[C@H]1C[C@H](N)[C@H](O)[C@H](C)O1` [Doxorubicin], the “chance of developing cardiomyopathy” value is recorded as 1-2% in data set [1] (cumulative dose of 300 mg/m^2), 3-5% in data set [1] (cumulative dose of 400 mg/m^2), 5 to 8% in data set [1] (cumulative dose of 450 mg/m^2) and 6-20% in data set [1] (cumulative dose of 500 mg/m^2).
Turning to enfuvirtide, in data set [2], the half-life result is given as “four”.
